The record followed here is US20060239958A1, “Biodegradable and pressure-sensitive material for medical use” (priority 2003, published 2006).

Each structure is given as a SMILES string.

The series relates to L929 cells. In words: Cytotoxicity test using L929 cells. The series is classed as cell-based. On the procedure: FIG. 1 is a graph showing the result of a cytotoxicity test on three compounds related to the synthesis of a citric acid derivative (CAD).
A cytotoxicity test was carried out in the following manner. As one example of the low-molecular-weight derivative serving as the hardening component, a biological low-molecular-weight derivative (CAD) was synthesized by modifying three carboxyl groups of a citric acid with N-hydroxysuccinimide (HOSu), and a cytotoxicity test was performed using L929 cells and the synthesized CAD. The number of cells in a sample added with no CAD was defined as 100%.
`O=C1CCC(=O)N1O` [HOSu, N-hydroxysuccinimide]: the “cytotoxicity (number of cells; sample added with no CAD defined as 100%)” value is on record as “extremely low toxicity”. The entry for `O=C(CC(O)(CC(=O)ON1C(=O)CCC1=O)C(=O)ON1C(=O)CCC1=O)ON1C(=O)CCC1=O` [CAD] is “extremely low toxicity”; for `O=C(O)CC(O)(CC(=O)O)C(=O)O` [citric acid] it is “extremely low toxicity”.
